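96-well plates; 48 h exposure; 5 concentrations. Endpoints by linear interpolation between flanking doses. Not reached: highest tested concentration assigned. GI50 marks 50% less growth.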 The source made the active and inactive calls. Cut-off read from the data, not from the text of the source: active = GI50 up to about 1.1 µM and inactive = higher.
Key:
Experiment in all cases: inhibition of tumour cell growth, NCI panel, 48 h
OVCAR-8 = test system: OVCAR-8
RPMI-8226 = test system: RPMI-8226
OVCAR-3 = test system: OVCAR-3
SF-295 = test system: SF-295
786-0 = test system: 786-0
UACC-62 = test system: UACC-62
SK-MEL-2 = test system: SK-MEL-2
CAKI-1 = test system: CAKI-1
EKVX = test system: EKVX
NCI/ADR-RES = test system: NCI/ADR-RES
SF-268 = test system: SF-268
SR = test system: SR
SK-MEL-28 = test system: SK-MEL-28
RXF 393 = test system: RXF 393
UACC-257 = test system: UACC-257
SNB-19 = test system: SNB-19
MCF7 = test system: MCF7
TK-10 = test system: TK-10
KM12 = test system: KM12
A498 = test system: A498

Measured: GI50

CC(CO)(Nc1ccc([N+](=O)[O-])cc1[N+](=O)[O-])C(=O)O (centres undefined)
inactive: OVCAR-8 34.8 µM | RPMI-8226 29.3 µM | OVCAR-3 22.2 µM | SF-295 68.9 µM | 786-0 71 µM | UACC-62 33.7 µM | SK-MEL-2 20.7 µM | CAKI-1 33.8 µM | EKVX 29.2 µM | NCI/ADR-RES 35.5 µM | SF-268 19.3 µM | SR 12.1 µM | SK-MEL-28 22.1 µM | RXF 393 12.2 µM | UACC-257 24.9 µM | SNB-19 43 µM | MCF7 17.5 µM | TK-10 36.1 µM | KM12 43.5 µM

c1coc(C2=Nc3cccc4cccc(c34)N2)c1
inactive: OVCAR-8 39.3 µM | RPMI-8226 71.8 µM | OVCAR-3 24.2 µM | SF-295 34 µM | 786-0 53.3 µM | UACC-62 35.5 µM | SK-MEL-2 29.3 µM | CAKI-1 35.4 µM | EKVX 55.2 µM | NCI/ADR-RES 18.7 µM | SF-268 68.2 µM | SR > 100 µM | SK-MEL-28 72.9 µM | RXF 393 25.9 µM | UACC-257 41.4 µM | SNB-19 > 100 µM | MCF7 24.1 µM | TK-10 > 100 µM | KM12 19.6 µM

Cc1cccc(N(C(=O)Nc2ccc(Cl)c(Cl)c2)C2=NCC(C)S2)c1 (centres undefined)
inactive: OVCAR-8 60.4 µM | RPMI-8226 49.1 µM | OVCAR-3 74.5 µM | SF-295 78.3 µM | 786-0 31.8 µM | SK-MEL-2 23.8 µM | CAKI-1 46.5 µM | A498 57.8 µM | EKVX 84.7 µM | NCI/ADR-RES 28 µM | SF-268 23.2 µM | SR 32.6 µM | SK-MEL-28 38.6 µM | UACC-257 42.9 µM | SNB-19 > 100 µM | MCF7 17 µM | TK-10 23.8 µM | KM12 18.9 µM

COc1cc(C2S/C(=C/c3ccccc3)C(=O)N2Cc2ccccc2)cc(OC)c1OC (centres undefined)
inactive: OVCAR-8 37.6 µM | RPMI-8226 21.5 µM | SF-295 28.5 µM | 786-0 41.1 µM | UACC-62 23.5 µM | SK-MEL-2 39.1 µM | CAKI-1 36.8 µM | A498 45.5 µM | EKVX 55.6 µM | NCI/ADR-RES 26.4 µM | SF-268 33.1 µM | SR 20 µM | SK-MEL-28 88.9 µM | UACC-257 > 100 µM | SNB-19 57.9 µM | MCF7 61.1 µM | TK-10 > 100 µM | KM12 36.1 µM

From ChEMBL document CHEMBL1201862, “PubChem BioAssay data set” (2004)
